The values that follow come from publication PMC8213057, “Targeting ALK2: An Open Science Approach to Developing Therapeutics for the Treatment of Diffuse Intrinsic Pontine Glioma” (Journal of Medicinal Chemistry, 2020).

Structures are written as SMILES. Several values for one entry are separate records, joined by “and”; a condition that tells them apart may be missing. Equal entries are not always repeated.

The target in one data set is T1, CYP1A2 (Homo sapiens, UniProt P05177).
T1 construct: tissue Corning 452117; host or cells: pooled human liver microsomes (UltraPool HLM 150, mixed gender)
As to the kind of experiment: CYP inhibition assay. The data set is classed as in vitro ADME. Particulars: human liver microsomes. For orientation: Microsomes from liver hold many membrane-bound enzymes, among them those of drug oxidation.

In a further data set the target is MLK4 (Homo sapiens, UniProt Q5TCX8). Particulars: 1 μM; Run 1, Run 2.
The target in another data set is ROCK2 (Homo sapiens, UniProt O75116). The note with it: 1 μM; Run 1, Run 2.
Another data set addresses T2, BRSK1 (Homo sapiens, UniProt Q8TDC3).
T2 sequence (Q8TDC3 1-778): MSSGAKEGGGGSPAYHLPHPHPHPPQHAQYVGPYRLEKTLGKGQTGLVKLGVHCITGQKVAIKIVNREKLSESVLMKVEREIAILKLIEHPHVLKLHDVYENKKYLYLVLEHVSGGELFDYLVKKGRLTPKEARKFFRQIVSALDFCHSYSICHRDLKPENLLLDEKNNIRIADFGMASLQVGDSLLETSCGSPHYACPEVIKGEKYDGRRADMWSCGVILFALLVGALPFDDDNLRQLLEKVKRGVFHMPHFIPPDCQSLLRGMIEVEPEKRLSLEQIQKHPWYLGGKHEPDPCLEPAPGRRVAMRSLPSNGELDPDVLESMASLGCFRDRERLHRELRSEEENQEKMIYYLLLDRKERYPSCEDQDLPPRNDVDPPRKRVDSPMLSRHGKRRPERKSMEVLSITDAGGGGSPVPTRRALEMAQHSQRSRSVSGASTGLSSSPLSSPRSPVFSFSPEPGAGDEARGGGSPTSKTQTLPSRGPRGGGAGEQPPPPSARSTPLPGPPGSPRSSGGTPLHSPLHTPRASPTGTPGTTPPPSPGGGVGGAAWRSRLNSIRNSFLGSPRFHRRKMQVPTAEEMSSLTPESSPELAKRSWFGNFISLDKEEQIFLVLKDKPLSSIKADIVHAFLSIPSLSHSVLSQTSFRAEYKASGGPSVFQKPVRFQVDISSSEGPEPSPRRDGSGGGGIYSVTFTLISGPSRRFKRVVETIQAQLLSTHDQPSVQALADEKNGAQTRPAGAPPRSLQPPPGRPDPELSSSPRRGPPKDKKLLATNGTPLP
The data set is described as follows: biochemical. The note with it: read-out: % enzyme activity, 1 μM; Run 1, Run 2.

For another data set, the target named is T3, ERK7/MAPK15 (Homo sapiens, UniProt Q8TD08).
T3 sequence (Q8TD08 1-544): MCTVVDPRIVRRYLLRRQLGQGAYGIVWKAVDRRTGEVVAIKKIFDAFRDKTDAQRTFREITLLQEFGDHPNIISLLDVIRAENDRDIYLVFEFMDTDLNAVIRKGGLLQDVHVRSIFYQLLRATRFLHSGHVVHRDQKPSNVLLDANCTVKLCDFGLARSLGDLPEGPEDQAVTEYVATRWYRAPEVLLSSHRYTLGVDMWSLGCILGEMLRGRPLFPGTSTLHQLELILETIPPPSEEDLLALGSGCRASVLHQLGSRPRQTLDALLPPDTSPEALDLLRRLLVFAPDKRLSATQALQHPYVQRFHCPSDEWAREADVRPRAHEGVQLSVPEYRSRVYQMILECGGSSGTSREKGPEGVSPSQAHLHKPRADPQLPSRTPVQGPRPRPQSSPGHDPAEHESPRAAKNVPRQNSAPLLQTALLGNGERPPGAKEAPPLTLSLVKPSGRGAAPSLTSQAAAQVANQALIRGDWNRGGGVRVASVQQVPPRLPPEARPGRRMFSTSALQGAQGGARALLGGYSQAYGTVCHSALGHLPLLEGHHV
The data set is described as follows: biochemical. The note with it: read-out: % enzyme activity, 1 μM; Run 1, Run 2.

In a further data set the target is T4, MEKK6 (Homo sapiens, UniProt O95382).
T4 sequence (O95382 1-1288): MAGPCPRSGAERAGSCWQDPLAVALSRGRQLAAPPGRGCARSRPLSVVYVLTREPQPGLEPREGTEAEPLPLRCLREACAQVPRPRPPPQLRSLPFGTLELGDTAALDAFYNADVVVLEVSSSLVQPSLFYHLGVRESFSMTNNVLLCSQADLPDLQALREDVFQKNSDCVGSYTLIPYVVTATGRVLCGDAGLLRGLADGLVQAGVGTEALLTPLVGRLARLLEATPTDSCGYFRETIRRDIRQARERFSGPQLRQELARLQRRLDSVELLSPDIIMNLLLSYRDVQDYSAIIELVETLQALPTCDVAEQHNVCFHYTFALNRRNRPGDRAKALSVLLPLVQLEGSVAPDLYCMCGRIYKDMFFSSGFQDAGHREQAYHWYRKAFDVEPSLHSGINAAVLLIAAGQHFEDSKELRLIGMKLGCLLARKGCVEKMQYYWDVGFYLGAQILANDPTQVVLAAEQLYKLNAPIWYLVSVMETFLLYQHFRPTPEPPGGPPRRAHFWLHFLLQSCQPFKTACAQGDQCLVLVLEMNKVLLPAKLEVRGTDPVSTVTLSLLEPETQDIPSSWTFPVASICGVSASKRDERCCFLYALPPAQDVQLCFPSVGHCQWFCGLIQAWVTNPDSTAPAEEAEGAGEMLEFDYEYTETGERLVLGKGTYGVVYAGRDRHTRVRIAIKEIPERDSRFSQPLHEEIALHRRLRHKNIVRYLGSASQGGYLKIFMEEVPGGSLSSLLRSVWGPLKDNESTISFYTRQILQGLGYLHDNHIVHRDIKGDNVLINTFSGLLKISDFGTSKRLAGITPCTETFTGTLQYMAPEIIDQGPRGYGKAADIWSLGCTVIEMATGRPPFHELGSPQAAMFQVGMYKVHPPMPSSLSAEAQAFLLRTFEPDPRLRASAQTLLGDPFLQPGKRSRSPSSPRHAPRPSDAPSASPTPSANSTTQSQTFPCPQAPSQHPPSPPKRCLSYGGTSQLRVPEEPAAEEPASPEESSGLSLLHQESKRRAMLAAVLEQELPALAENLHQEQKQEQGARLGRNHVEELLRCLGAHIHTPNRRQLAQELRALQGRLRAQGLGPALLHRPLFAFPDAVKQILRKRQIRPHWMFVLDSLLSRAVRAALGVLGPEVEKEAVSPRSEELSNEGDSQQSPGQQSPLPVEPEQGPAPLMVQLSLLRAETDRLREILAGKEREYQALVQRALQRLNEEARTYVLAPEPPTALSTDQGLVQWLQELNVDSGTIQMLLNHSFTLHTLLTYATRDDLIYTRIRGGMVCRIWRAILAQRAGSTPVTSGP
As to the kind of experiment: biochemical. The note with it: read-out: % enzyme activity, 1 μM; Run 1, Run 2.

Chain of ROCK2 (O75116 whole entry): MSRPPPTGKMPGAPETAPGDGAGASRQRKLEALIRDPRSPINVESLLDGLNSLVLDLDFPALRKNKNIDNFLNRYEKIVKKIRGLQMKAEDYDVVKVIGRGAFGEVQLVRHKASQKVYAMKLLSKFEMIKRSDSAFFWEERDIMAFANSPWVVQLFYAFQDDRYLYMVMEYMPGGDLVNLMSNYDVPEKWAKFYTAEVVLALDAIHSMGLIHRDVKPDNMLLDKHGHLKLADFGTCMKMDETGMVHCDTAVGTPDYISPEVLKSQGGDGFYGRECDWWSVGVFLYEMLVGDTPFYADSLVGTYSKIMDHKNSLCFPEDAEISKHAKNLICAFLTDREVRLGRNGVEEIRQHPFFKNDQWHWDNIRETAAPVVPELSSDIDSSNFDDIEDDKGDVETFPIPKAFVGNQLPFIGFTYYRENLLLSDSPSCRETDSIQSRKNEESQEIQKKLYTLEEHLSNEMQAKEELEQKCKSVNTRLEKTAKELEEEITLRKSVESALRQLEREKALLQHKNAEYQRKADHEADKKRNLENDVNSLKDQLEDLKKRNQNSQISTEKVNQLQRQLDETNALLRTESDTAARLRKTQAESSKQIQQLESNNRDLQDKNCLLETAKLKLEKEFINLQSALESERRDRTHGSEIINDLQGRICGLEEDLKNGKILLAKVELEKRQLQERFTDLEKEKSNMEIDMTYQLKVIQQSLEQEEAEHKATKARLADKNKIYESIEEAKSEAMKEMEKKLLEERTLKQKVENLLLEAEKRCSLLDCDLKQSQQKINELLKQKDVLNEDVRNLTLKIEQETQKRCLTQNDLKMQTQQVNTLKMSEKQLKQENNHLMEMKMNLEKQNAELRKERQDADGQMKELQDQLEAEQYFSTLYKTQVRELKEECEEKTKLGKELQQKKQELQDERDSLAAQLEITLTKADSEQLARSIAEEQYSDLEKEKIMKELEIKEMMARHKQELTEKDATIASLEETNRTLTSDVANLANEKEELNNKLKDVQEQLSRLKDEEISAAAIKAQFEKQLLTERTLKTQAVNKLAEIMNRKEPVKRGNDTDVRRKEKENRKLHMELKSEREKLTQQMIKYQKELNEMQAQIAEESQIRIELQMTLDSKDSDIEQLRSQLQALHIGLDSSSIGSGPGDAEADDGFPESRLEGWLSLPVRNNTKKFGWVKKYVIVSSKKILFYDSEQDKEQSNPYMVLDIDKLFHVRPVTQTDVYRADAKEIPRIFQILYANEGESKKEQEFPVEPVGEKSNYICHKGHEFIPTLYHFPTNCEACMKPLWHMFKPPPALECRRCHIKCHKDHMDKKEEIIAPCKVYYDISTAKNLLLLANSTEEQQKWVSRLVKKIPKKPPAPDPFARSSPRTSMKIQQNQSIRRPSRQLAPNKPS
T1 sequence (P05177 whole entry): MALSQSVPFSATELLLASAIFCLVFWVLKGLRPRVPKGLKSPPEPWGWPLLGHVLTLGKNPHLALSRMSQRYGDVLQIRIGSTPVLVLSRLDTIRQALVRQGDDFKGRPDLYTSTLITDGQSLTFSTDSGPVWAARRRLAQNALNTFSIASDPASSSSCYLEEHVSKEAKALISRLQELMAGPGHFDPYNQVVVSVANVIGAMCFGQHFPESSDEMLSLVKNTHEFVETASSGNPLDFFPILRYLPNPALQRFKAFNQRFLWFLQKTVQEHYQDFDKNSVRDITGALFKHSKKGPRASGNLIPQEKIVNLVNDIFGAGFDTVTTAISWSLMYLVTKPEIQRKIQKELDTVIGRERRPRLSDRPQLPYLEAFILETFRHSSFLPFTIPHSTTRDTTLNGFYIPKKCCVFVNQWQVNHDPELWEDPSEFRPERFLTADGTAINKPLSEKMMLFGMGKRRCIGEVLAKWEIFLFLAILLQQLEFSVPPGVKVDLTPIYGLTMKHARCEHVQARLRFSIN
Chain of MLK4 (Q5TCX8 whole entry): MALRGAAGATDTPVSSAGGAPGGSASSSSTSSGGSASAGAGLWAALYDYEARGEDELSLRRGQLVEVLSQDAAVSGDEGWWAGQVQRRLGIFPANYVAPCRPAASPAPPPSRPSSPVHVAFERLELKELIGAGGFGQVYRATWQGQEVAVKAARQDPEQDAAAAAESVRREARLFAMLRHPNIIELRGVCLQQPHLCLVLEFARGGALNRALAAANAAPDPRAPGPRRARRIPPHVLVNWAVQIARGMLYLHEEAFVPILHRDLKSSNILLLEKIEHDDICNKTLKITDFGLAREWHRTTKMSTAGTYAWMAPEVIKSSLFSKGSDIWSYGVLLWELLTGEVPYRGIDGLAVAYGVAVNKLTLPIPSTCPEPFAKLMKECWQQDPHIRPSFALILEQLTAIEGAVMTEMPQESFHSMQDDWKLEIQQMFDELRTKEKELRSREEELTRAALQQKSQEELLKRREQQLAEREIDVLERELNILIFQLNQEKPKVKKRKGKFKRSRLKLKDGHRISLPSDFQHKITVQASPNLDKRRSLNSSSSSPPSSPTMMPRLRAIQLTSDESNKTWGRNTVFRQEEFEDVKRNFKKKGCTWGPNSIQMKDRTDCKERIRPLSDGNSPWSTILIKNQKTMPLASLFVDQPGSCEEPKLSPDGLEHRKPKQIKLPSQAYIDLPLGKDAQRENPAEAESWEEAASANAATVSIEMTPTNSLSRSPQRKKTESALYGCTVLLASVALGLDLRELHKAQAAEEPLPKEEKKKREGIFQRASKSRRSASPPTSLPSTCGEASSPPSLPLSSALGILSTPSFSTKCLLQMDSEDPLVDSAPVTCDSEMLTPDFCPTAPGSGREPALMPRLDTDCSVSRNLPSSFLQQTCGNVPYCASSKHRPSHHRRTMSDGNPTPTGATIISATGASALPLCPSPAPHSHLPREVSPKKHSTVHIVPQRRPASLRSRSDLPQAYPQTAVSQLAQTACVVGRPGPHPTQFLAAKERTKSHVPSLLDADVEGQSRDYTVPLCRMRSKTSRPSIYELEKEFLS

For the molecule `COc1cc(-c2cncc(-c3ccc(N4C[C@@H](C)N(C)[C@@H](C)C4)cc3)c2C)cc(F)c1C(N)=O` [Compound 26c, 2-Fluoro-6-methoxy-4-(4-methyl-5-(4-((3R,5S)-3,4,5-trimethylpiperazin-1-yl)phenyl)pyridin-3-yl)benzamide], the % enzyme activity at 1 μM in the data set on SIK2 was 43.9% and 43.5%. The IC50 (as a rule, the concentration needed to halve the response being measured) at CYP1A2 was more than 50 µM. The figures for the “% enzyme activity” value at MLK4 and on ROCK2 were 93.38% and 93.98%, respectively. Besides, the figures for the remaining activity at 1 µM at BRSK1, on ERK7/MAPK15 and at MEKK6 were 84%, 98.3% and 95.9%, respectively.
Regarding `COc1cc(-c2cncc(-c3ccc(N4CCN(C)CC4)cc3)c2C)cc(F)c1C(N)=O` [Compound 26a, 2-Fluoro-6-methoxy-4-(4-methyl-5-(4-(4-methylpiperazin-1-yl)phenyl)pyridin-3-yl)benzamide], the % enzyme activity at 1 μM with SIK2 is 32% and 30.7%. The molecule also showed an IC50 against CYP1A2 of more than 50 µM. Also, the results for the “% enzyme activity” value on MLK4 and at ROCK2 were 95.21% and 115.13%, respectively. Further, the remaining activity at 1 µM was 84.7% at BRSK1, 86.8% on ERK7/MAPK15 and 98.3% at MEKK6.
